The text below walks through data of patent US9481676B2, “Azepino[4,5-B]indoles and methods of use” (Medivation Technologies, Inc., priority 2008, dated 2016).

In experiment [1] the target is T1, human recombinant dopamine D2L receptor (Homo sapiens, UniProt P14416).
T1 construct: expressed in transfected cells; host or cells: CHO cells
The experiment can be described thus: Dopamine D2L radioligand binding ([3H]Spiperone). Conditions: compound at 1 μM; read-out: Dopamine (1 μM) D2L, percent inhibition of specific binding. The method in brief:
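Human recombinant D2L receptor from CHO cells, in Tris-HCl buffer pH 7.4 with ascorbic acid, BSA and 150 mM NaCl; compounds at 1 μM or lower (1% DMSO) incubated with 0.16 nM [3H]spiperone, 120 min, 25° C. Nonspecific binding by 10 μM haloperidol; filter counting; % inhibition of specific binding.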

Experiment [2] addresses T2, human recombinant adrenergic α2A receptor (Homo sapiens, UniProt P08913).
T2 construct: expressed in transfected cells; host or cells: insect Sf9 cells
T2 sequence (P08913 1-465): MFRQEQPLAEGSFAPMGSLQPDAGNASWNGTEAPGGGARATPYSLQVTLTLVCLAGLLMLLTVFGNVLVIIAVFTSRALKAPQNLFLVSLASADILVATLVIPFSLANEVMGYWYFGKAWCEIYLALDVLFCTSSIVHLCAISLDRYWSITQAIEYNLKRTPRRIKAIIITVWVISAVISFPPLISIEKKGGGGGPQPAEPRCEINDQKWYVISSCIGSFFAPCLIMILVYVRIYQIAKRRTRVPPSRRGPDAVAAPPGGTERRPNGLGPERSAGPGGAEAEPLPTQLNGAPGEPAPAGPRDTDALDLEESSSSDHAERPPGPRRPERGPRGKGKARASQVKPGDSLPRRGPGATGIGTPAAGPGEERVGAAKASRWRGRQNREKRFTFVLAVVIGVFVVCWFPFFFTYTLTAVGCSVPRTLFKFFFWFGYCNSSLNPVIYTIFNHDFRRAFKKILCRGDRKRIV
The experiment can be described thus: Adrenergic alpha2A radioligand binding ([3H]MK-912). Particulars: compound at 1 μM; read-out: Adrenergic (1 μM) α2A, percent inhibition of specific binding. How it is done: To evaluate in radioligand binding assays the activity of compounds of the invention, human recombinant adrenergic α2A receptor expressed in insect Sf9 cells (Uhlen S et al. J Pharmacol Exp Ther. 271:1558, 1994) in a modified Tris-HCl buffer (50 mM Tris-HCl, pH 7.4, 12.5 mM MgCl2, 2 mM EDTA) was used. Compounds of invention were incubated with 1 nM [^3H]MK-912 for 60 min. at 25° C. MK912 is (2S-trans)-1,3,4,5′,6,6′,7,12b-octahydro-1′,3′-dimethyl-spiro[2 h-benzofuro [2,3-a]quinolizine-2,4′ (1′H)-pyrimidin]-2′ (3′H)-one hydrochloride Non-specific binding was estimated in the presence of 10 μM WB-4101 (2-(2,6-Dimethoxyphenoxyethyl)aminomethyl-1,4-benzodioxane hydrochloride). Receptor proteins were filtered and washed, the filters were then counted to determine [^3H]MK-912 specifically bound. Compounds were screened at 1 μM or lower, using 1% DMSO as vehicle. Biochemical assay results are presented as the percent inhibition of specific binding in Table 5.

Experiment [3] deals with T3, human recombinant histamine H2 receptor (Homo sapiens, UniProt P25021).
T3 construct: expressed in transfected cells; host or cells: CHO-K1 cells
The experiment can be described thus: Histamine H2 radioligand binding ([125I]Aminopotentidine). Conditions: compound at 1 μM; read-out: Histamine Binding (1 μM) H2, percent inhibition of specific binding. The method in brief: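 Membranes from CHO-K1 cells expressing recombinant human H2 receptor, in 50 mM phosphate buffer pH 7.4, incubated with 0.1 nM [125I]aminopotentidine for 120 min at 25 °C; nonspecific binding defined with 3 μM tiotidine.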

For experiment [4], the target named is T4, human recombinant serotonin (5-Hydroxytryptamine) 5-HT2A receptor (Homo sapiens, UniProt P28223).
T4 construct: expressed in transfected cells; host or cells: CHO-K1 cells
The experiment can be described thus: Serotonin 5-HT2A radioligand binding ([3H]Ketanserin). Conditions: compound at 1 μM; read-out: Serotonin (1 μM) 5-HT2A, percent inhibition of specific binding. The method in brief:
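Percent inhibition of specific [3H]ketanserin (0.5 nM) binding, filtration read-out, with compounds at ≤1 μM (1% DMSO vehicle). Receptor source: recombinant human 5-HT2A in CHO-K1 cells, 50 mM Tris-HCl pH 7.4, 60 min, 25 °C; 1 μM mianserin gives nonspecific binding.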

SMILES strings stand for the structures.

T4 sequence (P28223 whole entry): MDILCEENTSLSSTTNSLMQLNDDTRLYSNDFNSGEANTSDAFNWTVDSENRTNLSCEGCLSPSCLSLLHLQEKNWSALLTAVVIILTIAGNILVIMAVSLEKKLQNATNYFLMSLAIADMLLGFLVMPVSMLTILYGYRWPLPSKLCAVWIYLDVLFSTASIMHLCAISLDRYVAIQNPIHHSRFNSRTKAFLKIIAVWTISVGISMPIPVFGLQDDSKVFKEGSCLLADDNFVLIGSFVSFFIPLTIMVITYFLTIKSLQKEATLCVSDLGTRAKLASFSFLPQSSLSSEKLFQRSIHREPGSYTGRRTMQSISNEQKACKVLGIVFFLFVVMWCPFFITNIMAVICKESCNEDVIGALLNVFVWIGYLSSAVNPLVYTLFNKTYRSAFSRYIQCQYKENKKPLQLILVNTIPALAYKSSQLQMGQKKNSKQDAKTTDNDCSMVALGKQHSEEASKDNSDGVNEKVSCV
T3 sequence (P25021 whole entry): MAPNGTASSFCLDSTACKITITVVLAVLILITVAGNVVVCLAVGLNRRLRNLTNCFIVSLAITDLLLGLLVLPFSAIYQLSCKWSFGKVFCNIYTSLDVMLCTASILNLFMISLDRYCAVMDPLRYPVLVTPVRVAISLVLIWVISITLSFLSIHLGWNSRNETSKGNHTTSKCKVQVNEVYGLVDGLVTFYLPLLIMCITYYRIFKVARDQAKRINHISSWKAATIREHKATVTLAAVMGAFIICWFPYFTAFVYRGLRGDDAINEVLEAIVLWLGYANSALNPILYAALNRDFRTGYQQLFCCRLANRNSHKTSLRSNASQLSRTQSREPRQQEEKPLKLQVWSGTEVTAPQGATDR
T1 sequence (P14416 whole entry): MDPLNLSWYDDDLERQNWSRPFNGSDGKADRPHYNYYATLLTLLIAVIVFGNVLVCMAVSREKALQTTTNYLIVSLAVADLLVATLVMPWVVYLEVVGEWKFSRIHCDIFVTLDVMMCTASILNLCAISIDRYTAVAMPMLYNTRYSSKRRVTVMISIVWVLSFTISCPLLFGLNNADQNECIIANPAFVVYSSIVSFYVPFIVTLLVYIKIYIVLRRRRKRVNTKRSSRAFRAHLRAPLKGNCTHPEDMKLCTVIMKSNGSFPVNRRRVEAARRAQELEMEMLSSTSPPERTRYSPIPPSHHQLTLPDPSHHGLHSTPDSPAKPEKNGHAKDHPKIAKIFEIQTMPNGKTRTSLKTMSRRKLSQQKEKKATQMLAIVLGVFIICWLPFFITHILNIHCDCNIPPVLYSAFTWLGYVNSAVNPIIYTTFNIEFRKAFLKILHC

The term inhibition denotes the drop in the measured response relative to a control, in per cent. In the case of `Cc1ccc2c(c1)c1c(n2CC(=O)N2CCCC2)CCN(C)CC1` [Compound No. 45, 2-(2,3,4,5-tetrahydro-3,9-dimethylazepino[4,5-b]indol-6(1H)-yl)-1-(pyrrolidin-1-yl)ethanone], the inhibition at 1 µM is -6% in experiment [1], -9% in experiment [2], 7% in experiment [3] and 22% in experiment [4].
The like results for `Cc1ccc2c(c1)c1c(n2CC(=O)N(C)C2CCCCC2)CCN(C)CC1` [Compound No. 232, N-cyclohexyl-2-(3,9-dimethyl-2,3,4,5-tetrahydroazepino[4,5-b]indol-6(1H)-yl)-N-methylacetamide] were, in that order, 8%, 90%, 22% and 70%.
The like results for `CN1CCc2c(n(CC(=O)N3CCOCC3)c3ccc(Cl)cc23)CC1` [Compound No. 60, 2-(9-chloro-2,3,4,5-tetrahydro-3-methylazepino[4,5-b]indol-6(1H)-yl)-1-morpholinoethanone] were, in that order, -9%, 7%, 6% and -7%.
Take `C/C(=C\n1c2c(c3cc(C)ccc31)CCN(C)CC2)c1ccc(Cl)cc1Cl` [Compound No. 238, (E)-6-(2-(2,4-dichlorophenyl)prop-1-enyl)-3,9-dimethyl-1,2,3,4,5,6-hexahydroazepino[4,5-b]indole]: the inhibition at 1 µM in experiment [1] was determined as 7%; in experiment [2] it was 98%; in experiment [3] it was 98%; in experiment [4], 103%.
In the case of `COc1ccc(C(O)Cn2c3c(c4cc(C)ccc42)CCN(C)CC3)c(F)c1` (stereo not shown) [Compound No. 50, 1-(2-fluoro-4-methoxyphenyl)-2-(2,3,4,5-tetrahydro-3,9-dimethylazepino[4,5-b]indol-6(1H)-yl)ethanol], the inhibition at 1 µM in experiment [1] was determined as 34%; in experiment [2], 94%; in experiment [3], 65%; in experiment [4], 98%.
The like results for `Cc1ccc2c(c1)c1c(n2CC(C)(O)c2ccc(F)cc2)CCN(C)CC1` (stereo not shown) [Compound No. 14, 2-(4-fluorophenyl)-1-(2,3,4,5-tetrahydro-3,9-dimethylazepino[4,5-b]indol-6(1H)-yl)propan-2-ol] were, in that order, 38%, 90%, 83% and 101%.
As to `Cc1ccc2c(c1)c1c(n2CCc2ccccc2)CCN(C)CC1` [Compound No. 62, 1,2,3,4,5,6-hexahydro-3,9-dimethyl-6-phenethylazepino[4,5-b]indole], the inhibition at 1 µM was found to be 7% in experiment [1], 11% in experiment [2], 79% in experiment [3] and 12% in experiment [4].
The like results for `C/C(=C\n1c2c(c3cc(Cl)ccc31)CCN(C)CC2)c1ccc(Cl)cc1Cl` [Compound No. 239, (E)-9-chloro-6-(2-(2,4-dichlorophenyl)prop-1-enyl)-3-methyl-1,2,3,4,5,6-hexahydroazepino[4,5-b]indole] were, in that order, 9%, 93%, 89% and 102%.
Regarding `Cc1ccc2c(c1)c1c(n2CC(=O)Nc2ccc(F)cc2)CCN(C)CC1` [Compound No. 44, N-(4-fluorophenyl)-2-(2,3,4,5-tetrahydro-3,9-dimethylazepino[4,5-b]indol-6(1H)-yl)acetamide], the inhibition at 1 µM in experiment [1] is -8%; in experiment [2], 1%; in experiment [3], 1%; in experiment [4], 17%.
Regarding `Cc1ccc2c(c1)c1c(n2CC(=O)NC2CCCCC2)CCN(C)CC1` [Compound No. 22, N-cyclohexyl-2-(2,3,4,5-tetrahydro-3,9-dimethylazepino[4,5-b]indol-6(1H)-yl)acetamide], the inhibition at 1 µM was 0% in experiment [1], -14% in experiment [2], 5% in experiment [3] and -2% in experiment [4].
